Measurements published in patent US20070292396A1, “COMBINATION THERAPY WITH ONCOLYTIC ADENOVIRUS” (priority 2006, published 2007).
Like-named read-outs stand apart in the source and are kept apart here.

Assays:
[1] = test system: U-87 MG cells; assay: Cell viability assay (MTT), CPT-11 after adenoviral infection; assay type: cell-based; conditions: Homo sapiens, 48 h
Description: (§1) Cell cycle analysis. The DNA content was measured in samples of 10^6 cells that had been infected with 10 MOIs of Delta-24 or UVi Delta-24 or had been mock infected. Forty-eight hours later, cultures were treated with CPT-11 (4 μmol/L) or vehicle. Cells were trypsinized 3 to 5 days after drug treatment, fixed in 70% ice-cold ethanol, and incubated with propidium iodide (5 μg/mL) and RNase A (1 μg/mL) for 20 minutes at 37° C. All DNA content measurements were done with an EPICS XL-MCL cytometer (Coulter Corp., Hialeah, Fla.) equipped with an air-cooled argon ion laser emitting 488 nm at 15 mW. A multicycle program (Phoenix Flow System; Phoenix Controls Corp., San Diego, Calif.) was used for data analysis. Cell viability assays. The chemosensitivity of the treated glioma cells was assessed by using the tetrazolium salt 3-(4,5-dimethylthiazol-2-yl)-2,5-diphenyltetrazolium bromide (Sigma-Aldrich) to measure cell viability. For this assay, 2×10^3 cells per well were seeded in 96-well microtiter plates and infected 24 hours later with Delta-24 (at 1, 2.5, 5, or 10 MOs) or Uvi Delta-24 (10 MOs) or were mock infected. Forty-eight hours after adenoviral treatment, the cells were treated with various concentrations of CPT-11. Triplicate wells were used for each condition. Sixteen wells seeded with untreated glioma cells were used as a viability control, and 16 wells containing only complete medium were used as a control for nonspecific dye reduction. Medium was removed 72 hours after drug treatment, and 100 μL 3-(4,5-dimethylthiazol-2-yl)-2,5-diphenyltetrazolium bromide solution (1 mg/mL) was added to each well. The plates were then incubated for an additional 4 hours and then read on a Spectramax 190 microplate reader (Molecular Devices, Sunnyvale, Calif.) at a test wavelength of 570 nm.

[2] = test system: U-251 MG cells; assay: as above; assay type: cell-based; conditions: Homo sapiens, U-251, 48 h, CPT-11 added 48 hours later
Description: as §1

[3] = test system: U-87 MG and U-251 MG human glioma cells; assay: Cell cycle analysis (DNA content, flow cytometry), Delta-24 and CPT-11; assay type: cell-based; conditions: CPT-11 4 μmol/L, alone or 48 hours after 10 MOIs Delta-24
Description: as §1, with “Forty-eight hours after adenoviral treatment, the cells were treated with various concentrations of CPT-11. Triplicate wells were used for each condition. Sixteen wells seeded with untreated glioma cells were used as a viability control, and 16 wells containing only complete medium were used as a control for nonspecific dye reduction. Medium was removed 72 hours after drug treatment, and 100 μL 3-(4,5-dimethylthiazol-2-yl)-2,5-diphenyltetrazolium bromide solution (1 mg/mL) was added to each well.” left out

[4] = test system: U-87 MG human glioma xenograft; assay: Intracranial human glioma xenograft, Delta-24/CPT-11 sequential treatment; assay type: in vivo, athymic mice; conditions: Delta-24 1.5×10^8 viral particles intratumoral day 3; CPT-11 5 mg/kg i.p. days 7, 12, 20; control median survival 27 days
Description: Animal model. To assess the potential therapeutic relevance of the findings from the in vitro studies, we tested the Delta-24/CPT-11 sequential treatment in an in vivo model of a human glioma xenograft implanted intracranially. The U-87 MG cell line was selected as an exemplary cell line because it produces gliomas in nude mice with highly predictable growth kinetics and well-characterized pathologic features (Lal et al., 2000). To perform a reliable multiple-dose experiment, an implantable guide-screw system was developed that allows for multiple, precise intratumoral administrations of a therapeutic agent(s) (Lal et al., 2000) and has been validated for testing the antiglioma effect of Delta-24 (Fueyo et al., 2003). In this study, 5×10^5 cells of the U-87 MG human glioma cell line were engrafted in the caudate nucleus of athymic mice (Harlan- Sprague-Dawley, Inc., Indianapolis, Ind.). On day 3 after cell implantation, animals were treated with a single intratumoral injection of Delta-24 or UVi Delta-24 (1.5×10^8 viral particles in 5 μL). […] H&E-stained slides were analyzed for evidence of tumor, necrosis, and viral nuclear inclusions. […]
Statistical analyses. […] The in vivo anticancer effect of different treatments was assessed by plotting survival curves according to the Kaplan-Meier method, and groups were compared using the log-rank test.

[5] = test system: U-87 MG and U-251 MG glioma cells; assay: Cell viability assay (MTT), CPT-11 and Delta-24, results stated for both cell lines; assay type: cell-based, human
Description: as §1, with “For this assay, 2×10^3 cells per well were seeded in 96-well microtiter plates and infected 24 hours later with Delta-24 (at 1, 2.5, 5, or 10 MOs) or Uvi Delta-24 (10 MOs) or were mock infected.” left out, “Sixteen wells seeded with untreated glioma cells were used as a viability control, and 16 wells containing only complete medium were used as a control for nonspecific dye reduction. Medium was removed 72 hours after drug treatment, and 100 μL 3-(4,5-dimethylthiazol-2-yl)-2,5-diphenyltetrazolium bromide solution (1 mg/mL) was added to each well.” left out

[6] = test system: U-87 MG cell line; assay: In vitro combination of ICOVIR-5 with TMZ or RAD001; assay type: cell-based, human
[7] = test system: U87-MG xenografts; assay: Intracranial glioma xenograft, ICOVIR-5 in combination with RAD001 or TMZ; assay type: in vivo, athymic mice; conditions: ICOVIR-5 3×10^7 pfu/mouse intratumoral day 3, 5, 7; RAD001 5 mg/kg/d; TMZ 7.5 mg/kg/5 days; control 30.5 days
Description: Animal Studies. U87 MG human glioma cells (5×10^5) were engrafted into the caudate nucleus of athymic mice using a guide-screw system, as previously described (Lal, 2000). The inventors performed three independent experiments using 10 animals per group in each experiment. On days 3, 5, and 7 after implantation of tumor cells, animals were treated with 5 μl intratumoral injections of ICOVIR-5, PBS or adenovirus control (all 3×10^8 pfu/ml). Animals showing general or local symptoms of toxicity were killed. Surviving animals were killed 140 days after tumor implantation. Brains were then removed, fixed in 4% formaldehyde for 24 hours at room temperature, and embedded in paraffin. Hematoxylin-and-eosin-stained sections were evaluated for evidence of tumor, necrosis, and viral nuclear inclusions. The largest (a) and the smallest (b) diameters of the tumors were measures, and these measurements were used in the calculation of tumor volume using the formula a×b2×0.4 (Attia, 1966). […]
Statistical Analysis. […] Data are expressed as mean±SD or 95% confidence intervals (CIs). The in vivo cytopathic effect of ICOVIR-5 on human glioma xenografts was assessed by plotting survival curves according to the Kaplan-Meier method. […]

CCc1c2c(nc3ccc(OC(=O)N4CCC(N5CCCCC5)CC4)cc13)-c1cc3c(c(=O)n1C2)COC(=O)[C@]3(O)CC [CPT-11, irinotecan]
IC50 ([1]; read-out: IC50 dose of CPT-11, U-87 MG cells infected with Delta-24 at 10 MOIs, CPT-11 added 48 hours later): 1500 nM | IC50 ([1]; read-out: IC50 dose of CPT-11, U-87 MG cells infected with UVi Delta-24, CPT-11 added 48 hours later): 3400 nM | IC50 ([2]; read-out: IC50 dose of CPT-11, U-251 MG cells infected with Delta-24 at 10 MOIs): 1000 nM | IC50 ([2]; read-out: IC50 dose of CPT-11, UVi Delta-24-infected U-251 MG cells): 7200 nM | cells in the G2-M phase [3]: > 55 % of the cells in culture | extension of survival (average) over control [4]: 4 days | IC50 ([5]; Homo sapiens, read-out: IC50 for CPT-11, both U-87 MG and U-251 MG cells infected with 2 MOIs of Delta-24): 2500 nM | inhibition of cell proliferation ([5]; both cell lines, CPT-11 alone): inhibited cell proliferation in a concentration dependent fashion

CO[C@H]1C[C@@H]2CC[C@@H](C)[C@@](O)(O2)C(=O)C(=O)N2CCCC[C@H]2C(=O)O[C@H]([C@H](C)C[C@@H]2CC[C@@H](OCCO)[C@H](OC)C2)CC(=O)[C@H](C)/C=C(\C)[C@@H](O)[C@@H](OC)C(=O)[C@H](C)C[C@H](C)/C=C/C=C/C=C/1C [RAD001]
effect of drug on adenoviral replication in vitro (fiber expression, western blot and RT-QT-PCR) [6]: neither RAD001 nor TMZ suppressed adenoviral replication in vitro | mean survival [7]: 49 days

Cn1nnc2c(C(N)=O)ncn2c1=O [TMZ, temozolomide]
mean survival [7]: 35.5 days
